# Measured values as given in US10632100B2, “Application of obacunone in preparation of drug for preventing and treating lung damage and pulmonary fibrosis” (GUANGDONG PROVINCIAL HOSPITAL OF TRADITIONAL CHINESE …, priority 2016, dated 2020).
# Tests used:
# arginase = conditions: reciprocally increasing NO production; cited from earlier work
# [1] = system: human colon cancer cells (SW480); conditions: cited from earlier work
# liver and kidney of mice = assay: Damage caused by obacunone to liver and kidney of mice (HE staining); assay type: in vivo, C57BL/6 mice; conditions: 10 mg/kg obacunone, twice a week, 6 times in total; tissues 7 days after last injection; FIG. 4
# Description: (§1) Eighteen C57BL/6 mice, aged 8 weeks, each weighing 18 to 22 g, were provided by the Laboratory Animal Center of Guangzhou University of Chinese Medicine (Certificate No. 44007200023897).
# 8-week aged B6 mice were injected with corn oil or 10 mg/kg obacunone, twice a week, 6 times in total. 7 days after the last injection, liver and kidney tissues were isolated, fixed, sectioned, and HE-stained (FIG. 4), as described below.
# HE (Hematoxylin-eosin) staining: the paraffin wax samples were continuously sectioned with the semi-automated rotary microtome, with a thickness of 3.5 μm; for staining, the sections were baked and dried for 20 min, rinsed with xylene (2 times×10 min), with anhydrous ethanol (2 times×2 min), with 95% ethanol for 1 min, with 80% ethanol for 1 min, with 70% ethanol for 1 min, washed with water for 1 min, then stained with hematoxylin for 8 min, […], washed with water (2 times×1 min), with 0.5% HCl-ethanol for 10 sec, washed with water for 10 min, stained with eosin for 2 min, washed with water for 1 min, with 80% ethanol for 5 sec, with 85% ethanol for 5 sec, with 90% ethanol for 5 sec, with 95% ethanol for 1 min, with anhydrous ethanol (2 times×2 min), with anhydrous ethanol for 3 min, and with xylene (2 times×2 min), and then the staining was completed and the sections were directly mounted with neutral gum.
# [2] = system: human pancreatic cancer cells (Panc-28); conditions: by activating p53; cited from earlier work
# [3] = system: bleomycin-induced lung injury and pulmonary fibrosis; assay: Inhibition of bleomycin-induced lung injury and pulmonary fibrosis in vivo (HE and Masson staining of lung tissue); parameters: species or system C57BL/6 mice; conditions: 10 mg/kg obacunone intraperitoneally 48 hours before each bleomycin injection, lung tissue 7 days after last bleomycin, vs bleomycin group
# Description: as §1
# Bleomycin was intraperitoneally injected into 8-week old B6 mice at a dose of 2 mg/mouse, once per week, three times in total. 48 hours before each injection with bleomycin, corn oil or 10 mg/kg obacunone was intraperitoneally injected into B6 mice in advance. 7 days after the last injection with bleomycin, lung tissue was isolated, fixed, sectioned, HE-stained (see Experiment 8 for details), and Masson-stained.
# [4] = system: cytokines IL-6, TGF-β, IL-17, IFN-γ and MCP-1; assay: Bleomycin-induced expression of inflammatory factors in lung tissue (qPCR); assay type: in vivo, C57BL/6 mice; conditions: BLM+obacunone injection group vs BLM injection group, FIG. 2
# Description: as §1
# The mRNA levels of cytokines IL-6, TGF-β, IL-17, IFN-γ and MCP-1 were analyzed by qPCR. *P<0.05, **P<0.01 indicated significant differences between the BLM injection group and the normal group; ^# P<0.05, ^## P<0.01 indicated significant differences between the BLM injection group and the BLM+obacunone injection group.
# [5] = system: α-smooth muscle actin (α-SMA); assay: α-SMA expression in bleomycin-induced pulmonary fibrosis (immunohistochemistry staining); assay type: in vivo, C57BL/6 mice; conditions: after administration of obacunone, compared to the bleomycin group, FIG. 3
# Description: as §1
# In pulmonary fibrosis TGF-β induced lung interstitial fibroblasts to transform into myofibroblasts, of which the marker is the expression of α-smooth muscle actin (α-SMA). Therefore, in this experiment the effect of obacunone on the expression of α-SMA in lung myofibroblasts was investigated to provide experimental support for the use of obacunone in treatment and prevention of pulmonary fibrosis.
# Steps of immunohistochemistry staining are as follows:
# 1) placing and baking paraffin wax sections in an electrothermal thermostat oven at 60° C. for 30 min;
# 2) dewaxing the sections with xylene (8 min for each of I and II), hydrating them with decreasing concentrations of ethanol (8 min for each concentration), and washing with water;
# 3) performing antigen retrieval, and washing the sections with PBS (3 times×3 min);
# 4) adding Solution A (S-P kit) dropwise, blocking at room temperature for 10 min, and washing the sections with PBS (3 times×3 min);
# 5) adding Solution B (S-P kit) dropwise, blocking at room temperature for 10 min, and blotting extra liquid;
# 6) adding a primary antibody dropwise, placing the sections in a wet box overnight at 4° C., and washing the sections with PBS (3 times×3 min); […]
smiles,measurement,setting,value
CC1(C)OC(=O)C=C[C@]2(C)[C@H]3CC[C@@]4(C)[C@H](c5ccoc5)OC(=O)[C@H]5O[C@]54[C@]3(C)C(=O)C[C@@H]12 [Obacunone],activity of arginase,arginase,inhibiting activity of arginase
same,apoptosis of SW480 cells,[1]; by activating cytochrome C,induced cell apoptosis
same,growth of tumor cells (SW480),[1]; by activating p21 to arrest the cell cycle at phases G2/M and G1,suppressed growth of tumor cells
same,effect on liver and kidney (HE-stained sections),liver and kidney of mice,did not apparently affect the liver and kidney of mice
same,apoptosis of Panc-28 tumor cells,[2],induced apoptosis of tumor cells
same,"HE staining of lung tissue: pathological changes (alveolar shrinkage, inflammatory cell infiltration, wall thickening, bullae, interstitial proliferation)",[3]; FIG. 1A,significant improvement of the above pathological changes
same,"Masson staining of lung tissue: precipitation of stroma (collagen, fibronectin)",[3]; FIG. 1B,significant improvement of the above pathological changes
same,"mRNA levels of cytokines IL-6, TGF-β, IL-17, IFN-γ and MCP-1 in lung tissue",[4],repaired these bleomycin-induced changes to a great extent
same,expression of α-SMA in lung tissue,[5],significantly reduced
